{"source": "ChEMBL document CHEMBL3879883", "about": "“GPR 17 agonists and screening assay” (2013)", "key": {"[1]": {"biological_target": "T1, Uracil nucleotide/cysteinyl leukotriene receptor (Homo sapiens, UniProt Q13304)", "T1 sequence (Q13304 whole entry, canonical isoform)": "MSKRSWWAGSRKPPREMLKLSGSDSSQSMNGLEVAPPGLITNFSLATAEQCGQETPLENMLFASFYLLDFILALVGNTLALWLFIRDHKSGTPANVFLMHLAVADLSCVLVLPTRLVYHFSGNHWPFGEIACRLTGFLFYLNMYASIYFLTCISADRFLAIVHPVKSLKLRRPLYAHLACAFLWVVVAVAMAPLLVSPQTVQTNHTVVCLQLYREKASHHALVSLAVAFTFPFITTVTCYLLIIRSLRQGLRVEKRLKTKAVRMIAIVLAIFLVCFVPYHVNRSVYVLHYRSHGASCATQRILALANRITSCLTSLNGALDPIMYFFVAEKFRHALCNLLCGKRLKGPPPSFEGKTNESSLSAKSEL", "assay": "Agonist activity at recombinant human GPR17 short isoform transfected in CHO cells assessed as mobilization of intracellular Ca2+ after 20 mins by oregon green 488 BAPTA-1/AM dye-based fluorescence assay", "assay_type": "functional, cell-based"}, "[2]": {"assay": "Effect on Ca2+ mobilization in GPR17 deficient human 1321N1 cells at 0.3 uM after 20 mins by oregon green 488 BAPTA-1/AM dye-based fluorescence assay", "assay_type": "functional"}, "CHO-K1 [3]": {"system": "CHO-K1", "assay": "Effect on Ca2+ mobilization in GPR17 deficient CHOK1 cells at 0.3 uM after 20 mins by oregon green 488 BAPTA-1/AM dye-based fluorescence assay", "assay_type": "functional, Cricetulus griseus"}, "[4]": {"biological_target": "T1, Uracil nucleotide/cysteinyl leukotriene receptor", "assay": "Agonist activity at recombinant human GPR17 short isoform transfected in CHO cells assessed as mobilization of intracellular Ca2+ at 1 uM after 20 mins by oregon green 488 BAPTA-1/AM dye-based fluorescence assay relative to control", "assay_type": "functional, cell-based"}, "[5]": {"biological_target": "T1, Uracil nucleotide/cysteinyl leukotriene receptor", "assay": "Agonist activity at recombinant human GPR17 short isoform transfected in human 1321N1 cells assessed as mobilization of intracellular Ca2+ at 1 uM after 20 mins by oregon green 488 BAPTA-1/AM dye-based fluorescence assay relative to control", "assay_type": "functional, cell-based"}, "[6]": {"assay": "Effect on Ca2+ mobilization in GPR17 deficient human 1321N1 cells at 1 uM after 20 mins by oregon green 488 BAPTA-1/AM dye-based fluorescence assay", "assay_type": "functional"}, "[7]": {"biological_target": "T1, Uracil nucleotide/cysteinyl leukotriene receptor", "assay": "Agonist activity at recombinant human GPR17 short isoform transfected in human 1321N1 cells assessed as mobilization of intracellular Ca2+ after 20 mins by oregon green 488 BAPTA-1/AM dye-based fluorescence assay", "assay_type": "functional, cell-based"}, "CHO-K1 [8]": {"system": "CHO-K1", "assay": "Effect on Ca2+ mobilization in GPR17 deficient CHOK1 cells at 1 uM after 20 mins by oregon green 488 BAPTA-1/AM dye-based fluorescence assay", "assay_type": "functional, Cricetulus griseus"}, "[9]": {"assay": "Effect on Ca2+ mobilization in GPR17 deficient human 1321N1 cells at 3 uM after 20 mins by oregon green 488 BAPTA-1/AM dye-based fluorescence assay", "assay_type": "functional"}, "[10]": {"biological_target": "T1, Uracil nucleotide/cysteinyl leukotriene receptor", "assay": "Agonist activity at recombinant human GPR17 short isoform transfected in CHO cells assessed as mobilization of intracellular Ca2+ at 3 uM after 20 mins by oregon green 488 BAPTA-1/AM dye-based fluorescence assay relative to control", "assay_type": "functional, cell-based"}, "[11]": {"biological_target": "T1, Uracil nucleotide/cysteinyl leukotriene receptor", "assay": "Agonist activity at recombinant human GPR17 short isoform transfected in human 1321N1 cells assessed as mobilization of intracellular Ca2+ at 3 uM after 20 mins by oregon green 488 BAPTA-1/AM dye-based fluorescence assay relative to control", "assay_type": "functional, cell-based"}, "CHO-K1 [12]": {"system": "CHO-K1", "assay": "Effect on Ca2+ mobilization in GPR17 deficient CHOK1 cells at 3 uM after 20 mins by oregon green 488 BAPTA-1/AM dye-based fluorescence assay", "assay_type": "functional, Cricetulus griseus"}, "[13]": {"biological_target": "T1, Uracil nucleotide/cysteinyl leukotriene receptor", "assay": "Antagonist activity at recombinant human GPR17 short isoform transfected in CHO cells assessed as inhibition of RA-II-150-mediated intracellular Ca2+ mobilization preincubated for 5 to 30 mins followed by RA-II-150 addition measured after 20 mins by oregon green 488 BAPTA-1/AM dye-based fluorescence assay", "assay_type": "functional, cell-based"}, "[14]": {"assay": "Effect on Ca2+ mobilization in GPR17 deficient human 1321N1 cells at 0.1 uM after 20 mins by oregon green 488 BAPTA-1/AM dye-based fluorescence assay", "assay_type": "functional"}, "CHO-K1 [15]": {"system": "CHO-K1", "assay": "Effect on Ca2+ mobilization in GPR17 deficient CHOK1 cells at 0.1 uM after 20 mins by oregon green 488 BAPTA-1/AM dye-based fluorescence assay", "assay_type": "functional, Cricetulus griseus"}, "[16]": {"biological_target": "T1, Uracil nucleotide/cysteinyl leukotriene receptor", "assay": "Agonist activity at recombinant human GPR17 short isoform transfected in CHO cells assessed as mobilization of intracellular Ca2+ at 0.3 uM after 20 mins by oregon green 488 BAPTA-1/AM dye-based fluorescence assay relative to control", "assay_type": "functional, cell-based"}, "CHO": {"system": "CHO", "assay": "Inhibition of forskolin-stimulated intracellular cAMP accumulation in CHO cells after 30 mins by FRET assay", "assay_type": "functional, cell-based", "details": "Cricetulus griseus"}, "[17]": {"biological_target": "T1, Uracil nucleotide/cysteinyl leukotriene receptor", "assay": "Agonist activity at recombinant human GPR17 short isoform transfected in CHO cells assessed as inhibition of forskolin-stimulated intracellular cAMP accumulation after 30 mins by FRET assay", "assay_type": "functional, cell-based"}, "[18]": {"biological_target": "T1, Uracil nucleotide/cysteinyl leukotriene receptor", "assay": "Agonist activity at recombinant human GPR17 short isoform transfected in human 1321N1 cells assessed as mobilization of intracellular Ca2+ at 10 uM after 20 mins by oregon green 488 BAPTA-1/AM dye-based fluorescence assay relative to control", "assay_type": "functional, cell-based"}}, "note": "pEC50: −log10 of the molar value. The source made the active and inactive calls. The calls are words filed in the database; no cut-off is given here.", "data": [{"smiles": "O=C(O)CCc1c(C(=O)O)[nH]c2cc(Br)ccc12", "values": [{"measurement": "pEC50", "setting": "[1]", "result": 5.50}]}, {"smiles": "O=C(O)CCc1c(C(=O)O)[nH]c2cc(Cl)ccc12", "values": [{"measurement": "Activity", "setting": "[2]", "result": 4, "unit": "%"}, {"measurement": "Activity", "setting": "CHO-K1 [3]", "result": 1, "unit": "%"}, {"measurement": "Activity", "setting": "[4]", "result": 94, "unit": "%"}, {"measurement": "Activity", "setting": "[5]", "result": 84, "unit": "%"}]}, {"smiles": "O=C(O)CCc1c(C(=O)O)n(CCC(=O)O)c2cc(Cl)cc(Cl)c12", "values": [{"measurement": "Activity", "setting": "[6]", "result": 1, "unit": "%"}, {"measurement": "pEC50", "setting": "[7]", "result": 5.28}, {"measurement": "pEC50", "setting": "[1]", "result": 6.73}, {"measurement": "Activity", "setting": "[4]", "result": 85, "unit": "%"}, {"measurement": "Activity", "setting": "CHO-K1 [8]", "result": 1, "unit": "%"}, {"measurement": "Activity", "setting": "[5]", "result": 80, "unit": "%"}]}, {"smiles": "O=C(O)CCc1c(C(=O)O)[nH]c2cc(-c3ccccc3)ccc12", "values": [{"measurement": "pEC50", "setting": "[1]", "result": 6.14}]}, {"smiles": "O=C(O)CCc1c(C(=O)O)[nH]c2cc(-c3ccccc3)cc(-c3ccccc3)c12", "values": [{"measurement": "pEC50", "setting": "[1]", "result": 5.52}]}, {"smiles": "O=C(O)CCc1c(C(=O)O)[nH]c2cc(F)cc(F)c12", "values": [{"measurement": "Activity", "setting": "[9]", "result": 2, "unit": "%"}, {"measurement": "Activity", "setting": "[10]", "result": 97, "unit": "%"}, {"measurement": "Activity", "setting": "[11]", "result": 77, "unit": "%"}, {"measurement": "Activity", "setting": "CHO-K1 [12]", "result": 1, "unit": "%"}]}, {"smiles": "O=C(Nc1cccc2c(=O)cc(-c3nnn[nH]3)oc12)c1ccc(OCCCCc2ccccc2)cc1", "values": [{"measurement": "inhibition", "setting": "[13]", "result": "Dose-dependent effect"}]}, {"smiles": "Cc1cc(C)c2c(CCC(=O)O)c(C(=O)O)[nH]c2c1", "values": [{"measurement": "Activity", "setting": "[6]", "result": 1, "unit": "%"}, {"measurement": "Activity", "setting": "[4]", "result": 68, "unit": "%"}, {"measurement": "Activity", "setting": "CHO-K1 [8]", "result": 1, "unit": "%"}, {"measurement": "Activity", "setting": "[5]", "result": 76, "unit": "%"}]}, {"smiles": "O=C(O)CCc1c(C(=O)O)[nH]c2cc(Cl)cc(Cl)c12", "values": [{"measurement": "Activity", "setting": "[14]", "result": 0, "unit": "%"}, {"measurement": "Activity", "setting": "CHO-K1 [15]", "result": 0, "unit": "%"}, {"measurement": "Activity", "setting": "[16]", "result": 100, "unit": "%"}]}, {"smiles": "NCC(=O)CCC(=O)O", "values": [{"measurement": "inhibition", "setting": "CHO", "result": "Active"}, {"measurement": "inhibition", "setting": "[17]", "result": "Active"}]}, {"smiles": "O=C(O)CCc1c(C(=O)O)[nH]c2cc(I)cc(I)c12", "values": [{"measurement": "pEC50", "setting": "[1]", "result": 5.32}]}, {"smiles": "O=C(O)CCc1c(C(=O)O)[nH]c2cc(I)ccc12", "values": [{"measurement": "pEC50", "setting": "[1]", "result": 6.15}]}, {"smiles": "O=C(O)CCc1c(C(=O)O)[nH]c2cc(Br)cc(Br)c12", "values": [{"measurement": "Activity", "setting": "[2]", "result": 0, "unit": "%"}, {"measurement": "Activity", "setting": "CHO-K1 [3]", "result": 0, "unit": "%"}, {"measurement": "Activity", "setting": "[18]", "result": 106, "unit": "%"}, {"measurement": "Activity", "setting": "[16]", "result": 89, "unit": "%"}]}]}
